Source: PubChem BioAssay AID179 (DTP/NCI, 2004)
Several values for one entry are separate records, joined by “and”; a condition that tells them apart may be missing. Identical values can stand only once. Activity calls are given as the source filed them.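 How the source made its calls: active means compounds giving half or more protection of infected cells from virus-caused growth loss, again on retest; inactive means the rest.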 Where a SMILES comes first, the peptide text is derived from it. [ ]: non-standard residue; d: D form. Ava = NCCCCC(=O)O; Mpa = O=C(O)CCS

Test system: CEM cells HIV-1 protection, formazan growth assay
Test: NCI AIDS Antiviral Assay
Conditions: for IC50: measured here: growth of uninfected CEM cells
Method in brief: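 Human CEM cells, uninfected and HIV-1-infected, exposed to five drug concentrations; growth measured by soluble formazan assay and scored as percent protection from infection, with protecting compounds retested.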

## NC(Cc1c2ccccc2cc2ccccc12)C(=O)O (centres undefined)
  EC50: > 200 µM
  IC50: 102 µM

## CCOC(=O)/C(C#N)=C\C=C1/C=CNC2=NCCN21
  EC50: 19.5 µM
  IC50: 24.5 µM

## Cc1c2c(nc3ccccc13)C(=O)c1cccnc1C2=O
  EC50: > 100 µM
  IC50: 13.5 µM

## CC1(C)OC2OC(C(=O)c3ccccc3)C3OC(C)(C)OC3C2O1 (centres undefined)
  outcome: inactive

## O=c1cn[nH]c2c(Br)cc(Br)cc12
  EC50: > 70.8 µM
  IC50: > 70.8 µM

## CCn1c(O)c(C=Nc2ccccc2)s/c1=N/Nc1nc(C)c(C(C)=O)s1
  EC50: > 200 µM
  IC50: > 200 µM

## CSc1nc(-c2ccc(Cl)cc2)c(C#N)c(=O)n1C1OC(COC(C)=O)C(OC(C)=O)C(OC(C)=O)C1OC(C)=O (centres undefined)
  EC50: > 132 µM
  IC50: 32.4 µM and 89.1 µM

## SC[C@@H]1COC[C@H](CS)S1
  EC50: > 95.5 µM
  IC50: > 95.5 µM

## CCCCNc1nc2nc[nH]c2c(=O)[nH]1
  EC50: > 200 µM
  IC50: > 200 µM

## ClC(Cl)(Cl)C1OCOC(C(Cl)(Cl)Cl)OCO1 (centres undefined)
  EC50: > 200 µM
  IC50: > 200 µM

## N#CN=C(N)c1sc2nc3c(c(-c4ccc(Br)cc4)c2c1N)CCCC3
  EC50: > 200 µM
  IC50: 7.08 µM

## C=C1C(=O)[C@]23C[C@H]1CC[C@H]2[C@@]12CO[C@@H](O)[C@@H]1C(C)(C)[C@@H](O)C[C@@H]2OC3=O
  EC50: > 692 µM
  IC50: 26.3 µM

## CCC(=O)OC1CCn2c1nc1c2C(=O)C(C)=C(N2CC2)C1=O (centres undefined)
  EC50: > 200 µM
  IC50: 0.575 µM

## Cc1ccc(C)n1-n1c(-c2ccccc2)n[nH]c1=O
  EC50: > 200 µM
  IC50: 89.1 µM

## O=C(O)[C@@H]1CCS(=O)(=O)N1
  EC50: > 200 µM
  IC50: > 200 µM

## NC(=S)NNC(=O)CCC(=O)Nc1ccccc1Cl
  outcome: inactive

## CCOC(=O)C(=C/C=C/N[C@@H](Cc1c[nH]c2ccccc12)C(N)=O)C(=O)OCC
  EC50: > 18.2 µM
  IC50: > 18.2 µM

## O=C(O)C1CSC(c2cccs2)N1 (centres undefined)
  EC50: > 200 µM
  IC50: > 200 µM

## CC(C)CC(NC(=O)C(Cc1ccc(O)cc1)NC(=O)C(CO)NC(=O)C(N)CCC(=O)O)C(=O)NCC(=O)O (centres undefined) (H-ESYLG-OH; configuration not given here)
  outcome: inactive

## O=S(=O)(c1ccc(Br)cc1)n1c2ccc(Br)cc2c2nc3ccccc3nc21
  EC50: > 100 µM
  IC50: > 100 µM

## COc1ccc(-n2[nH]nc(C(N)=O)c2=O)cc1
  EC50: > 200 µM
  IC50: > 200 µM

## O=S1(=O)OC(c2ccc(O)c(Cl)c2)(c2ccc(O)c(Cl)c2)c2ccccc21
  outcome: inactive

## COCCOCCOCCC(=O)NC1CC2CCC1(C)C2(C)C (centres undefined)
  EC50: > 200 µM
  IC50: > 200 µM

## CC1=C(C#N)C(=N)OC1(C)C1CC(=O)C=CC1=O (centres undefined)
  EC50: > 200 µM
  IC50: 10.5 µM

## C[C@H]1[C@@H](c2ccccc2)C12C(=O)NC(=O)NC2=O
  EC50: > 200 µM
  IC50: 105 µM

## COC1Nc2nc3ccccc3nc2NC1OC (centres undefined)
  EC50: > 363 µM
  IC50: 66.1 µM

## CCCCN(CCCC)C(=O)C(=O)CC(=O)/C=C/c1ccccc1
  EC50: > 288 µM
  IC50: > 288 µM

## S=C1Cc2c(-c3ccc(Br)cc3)cc(-c3ccccc3)nc2-c2ccccc2N1
  EC50: > 151 µM
  IC50: 6.17 µM

## CCOC(=O)c1ccc(CS(=O)(=O)c2ccc([N+](=O)[O-])cc2)cc1
  EC50: > 53.7 µM
  IC50: > 53.7 µM

## CN(C(=O)C12C3C4C1C1C2C3C41C(O)C(C)(C)C)C(C)(C)C (centres undefined)
  EC50: > 117 µM
  IC50: > 117 µM

## CC(C)CC(NC(=O)C(CCC(=O)O)NC(=O)CNC(=O)CNC(=O)C(CO)NC(=O)C(CC(C)C)NC(=O)C(NC(=O)C(CO)NC(=O)C(C)NC(=O)C(CCCNC(=N)N)NC(=O)C(C)NC(=O)CN)C(C)C)C(=O)NC(CC(=O)O)C(=O)NC(CCCNC(=N)N)C(=O)NC(Cc1c[nH]c2ccccc12)C(=O)NC(Cc1ccc(O)cc1)C(N)=O (centres undefined) (H-GARASVLSGGELDRWY-NH2; configuration not given here)
  EC50: > 145 µM
  IC50: > 145 µM

## O=C1c2ccccc2CCC1C(O)(C(F)(F)F)C(F)(F)F (centres undefined)
  EC50: > 200 µM
  IC50: > 200 µM

## CCCCCCCCCC1CC(=O)OC23CCCC(=O)C12O3 (centres undefined)
  EC50: > 32.4 µM
  IC50: > 32.4 µM

## O=c1ssc(=Nc2ccccc2)n1-c1ccccc1
  EC50: > 200 µM
  IC50: 67.6 µM and 56.2 µM

## CC1OC(OC2C(O)COC(OC3C(C)OC(OC4C(OC(=O)[C@]56CCC(C)(C)C[C@@H]5C5=CCC7[C@@]8(C)C[C@H](O)[C@H](OC9OC(CO)C(O)C(O)C9O)[C@@](C)(CO)[C@@H]8CC[C@@]7(C)[C@]5(C)CC6)OCC(O)C4O)C(O)C3O)C2O)C(O)C(O)C1O (some centres undefined)
  EC50: > 100 µM
  IC50: 29.5 µM

## COC(=O)C1(C)CCCC2(C)C3CC(CO)C(C(C)C)CC3CCC12 (centres undefined)
  EC50: > 200 µM
  IC50: > 200 µM

## O=[N+]([O-])/C(C(Cl)=C(Cl)Cl)=C(/Cl)SCc1ccccc1
  EC50: > 200 µM
  IC50: 11 µM

## CC(C)OC(=S)SSC(=S)NCCNC(=S)SSC(=S)OC(C)C
  EC50: > 200 µM
  IC50: 9.77 µM

## O=C1O[C@H]2[C@@H](I)[C@H]3C[C@H]2[C@H]1[C@H]3c1ccccc1
  EC50: > 200 µM
  IC50: > 200 µM

## NCCNCCCNC(=O)c1cc(-c2ccccc2)nc2ccccc12
  EC50: > 200 µM
  IC50: 53.7 µM

## C/C(=C\CNc1ncnc2c1ncn2C1CCCCO1)COP(=O)(O)O (centres undefined)
  outcome: inactive

## O=C(CC(C(=O)c1cccs1)c1ccccc1)c1ccccc1O (centres undefined)
  EC50: > 200 µM
  IC50: 115 µM

## NC(=O)C(=CNC(=S)NCc1ccccc1)C(N)=O
  EC50: > 200 µM
  IC50: > 200 µM

## CCNc1ccccc1S(=O)(=O)c1ccccc1[N+](=O)[O-]
  EC50: > 0.741 µM

## O=c1[nH]c(-c2ccccc2)nc2ccc(Cl)cc12
  outcome: inactive

## CCOc1ccc(O)cc1[P+](c1ccccc1)(c1ccccc1)c1ccccc1
  outcome: inactive

## Cc1ccccc1NC(=S)N=Nc1c(O)[nH]c2ccccc12
  EC50: > 200 µM
  IC50: > 200 µM

## N#CC1C(=O)NC(=O)C1=O (centres undefined)
  EC50: > 1820 µM
  IC50: > 1820 µM

## COc1ccc(-c2cc(=O)c3c(OC)c(OC)c(OC)cc3o2)cc1
  EC50: > 129 µM
  IC50: 41.7 µM

## CS(=O)(=O)C(CC(S(C)(=O)=O)S(C)(=O)=O)S(C)(=O)=O
  EC50: > 20.4 µM
  IC50: > 20.4 µM

## COc1cccc(/C=N/[N-]C(N)=O)c1[O-].[Co+2].[OH3+]
  EC50: > 126 µM
  IC50: 61.7 µM

## CC(=S)N=Cc1c(N)[nH]n(-c2ccccc2)c1=O
  EC50: > 200 µM
  IC50: > 200 µM

## CC1(C)CCOC(=O)C(Cl)CC1Cl (centres undefined)
  EC50: > 200 µM
  IC50: > 200 µM

## O=C1CC(CC(O)[C@@H]2CCCC[C@@H]2O)CC(=O)N1c1ccccc1 (some centres undefined)
  EC50: > 200 µM
  IC50: > 200 µM

## CCOP(=O)(OCC)c1ccc[nH]1
  EC50: > 200 µM
  IC50: > 200 µM

## CCOC(=O)C1=C(C)N(NC(=O)OC)C2(N)N(NC(=O)OC)C(C)=C(C(=O)OCC)C12C#N (centres undefined)
  EC50: > 537 µM
  IC50: > 537 µM

## Cc1ccc(NC(=O)/C(CC2N=c3c(ccc4c(O)c5ccccc5c(O)c34)=NC2O)=N/NC(C)(C)C)cc1 (centres undefined)
  EC50: > 10 µM
  IC50: > 10 µM

## O=C1CCC[C@]2(CCC[C@@H](O)C2)N1
  EC50: > 200 µM
  IC50: > 200 µM

## O=C(CCCCCCCCC(=O)OCCCn1cc(C(=O)NC(=O)OCc2ccccc2)c(=O)[nH]c1=O)OCCCn1cc(C(=O)NC(=O)OCc2ccccc2)c(=O)[nH]c1=O
  EC50: > 15.8 µM
  IC50: > 15.8 µM

## OC(Cc1cnnc2ccccc12)C(Cl)(Cl)Cl (centres undefined)
  EC50: > 200 µM
  IC50: 70.8 µM

## C=CC(c1ccccc1)[C@@]1(OC(C)=O)C(=O)C(=O)OC1C1COC(C)(C)O1 (some centres undefined)
  EC50: > 200 µM
  IC50: 6.46 µM

## CCC1SC2=NCCN2C1(O)c1ccc(Cl)cc1 (centres undefined)
  EC50: > 200 µM
  IC50: 102 µM

## Cc1cc(C)nc(NS(=O)(=O)c2ccc(NC(=O)c3cccc4c(Nc5ccc(S(N)(=O)=O)cc5)c5ccccc5nc34)cc2)n1
  EC50: > 55 µM
  IC50: 21.9 µM

## O=C(/C=C/c1c(O)c2ccccc2[nH]c1=O)CC(=O)C(=O)Nc1cccc(O)c1
  EC50: > 174 µM
  IC50: > 174 µM

## Nn1c(SCC(=O)O)nc2ccccc2c1=O
  EC50: > 200 µM
  IC50: > 200 µM

## CC(C)(C)OC(=O)c1cccnc1/C=N/O
  EC50: > 589 µM
  IC50: 186 µM

## [O-][n+]1c2ccccc2cc2c1c1ccccc1n2O
  EC50: > 20.9 µM
  IC50: > 20.9 µM

## COc1cc(/C=C2\CCc3ccccc3C2=O)cc(OC)c1OC
  EC50: > 30.9 µM
  IC50: 9.77 µM

## COC(=O)/C=C(\C=C/C(=O)O)C(=O)O
  EC50: > 1260 µM
  IC50: 251 µM

## CCN(CC)CCCCCCCNc1c2ccc(Cl)cc2nc2ccc(OC)cc12
  EC50: > 2 µM
  IC50: 0.427 µM

## C#CC(O)Cc1ccc(OC)c2occc12 (centres undefined)
  EC50: > 200 µM
  IC50: 117 µM

## CN1C(CC(O)c2ccccc2)CCCC1CC(O)c1ccccc1 (centres undefined)
  EC50: > 200 µM
  IC50: > 200 µM

## Cc1cc2ccccc2n1S(=O)(=O)c1ccccc1
  EC50: > 95.5 µM
  IC50: > 95.5 µM

## Cc1cc2ncc3c(=O)n(NS(=O)(=O)c4ccc(N)cc4)ccc3n2n1
  EC50: > 200 µM
  IC50: > 200 µM

## CC(NC(=O)CCS)C(=O)NC(C)C(=O)NC(Cc1c[nH]c2ccccc12)C(=O)NC(Cc1c[nH]cn1)C(=O)NC(CO)C(=O)NC(Cc1c[nH]c2ccccc12)C(=O)NCCCCC(=O)NC(C)C(=O)NC(CCC(N)=O)C(=O)NC(CCCCN)C(=O)NC(C)C(=O)NC(CCCNC(=N)N)C(=O)NC(CCCCN)C(N)=O (centres undefined) ([Mpa]AAWHSW[Ava]AQKARK-NH2; configuration not given here)
  EC50: > 20 µM
  IC50: > 20 µM

## O=C(Nc1cc2cc([N+](=O)[O-])ccc2oc1=O)c1cccs1
  EC50: > 61.7 µM
  IC50: > 61.7 µM

## CC1OC23CCCCC2C(C#N)(C#N)C1(C#N)C(=N)O3 (centres undefined)
  EC50: > 200 µM
  IC50: 4.27 µM

## COC1(CC[C@H](C)COC2OC(CO)C(O)C(O)C2O)O[C@H]2C[C@H]3[C@@H]4CC=C5C[C@@H](OC6OC(CO)C(O)C(OC7OC(CO)C(O)C(O)C7O)C6OC6OC(C)C(O)C(O)C6O)CC[C@]5(C)[C@H]4CC[C@]3(C)[C@H]2[C@@H]1C (some centres undefined)
  EC50: > 200 µM
  IC50: 3.89 µM

## CCCCCCCCCCCCCCCC=C(c1cc(Br)cc(C(=O)O)c1OC)c1cc(Br)cc(C(=O)O)c1OC
  EC50: > 1070 µM
  IC50: 24 µM

## CC1(O)Cc2c(O)c3c(c(O)c2CC1O)C(=O)C=CC3=O (centres undefined)
  EC50: > 12.9 µM
  IC50: 1.32 µM

## O=C1[C@@H]2[C@H](C(=O)N1c1ccccc1)[C@H]1CC[C@H]2N1C(=O)c1ccccc1
  EC50: > 55 µM
  IC50: > 55 µM
